The text below walks through data of article PMC9863562, “Design, Synthesis, and Biological Evaluation of 2-Mercaptobenzoxazole Derivatives as Potential Multi-Kinase Inhibitors” (Pharmaceuticals, 2023).

SMILES strings stand for the structures.

This experiment relates to Caspase-9. The experiment is described as follows: Apoptosis-related proteins in HepG2 cells (ELISA), Caspase-9. The format is cell-based, human. From the text:
Compound 6b was selected to investigate the apoptotic markers against the liver cancer cell line (HepG2). […] Typically, Bax, Bcl-2, and caspases contribute to the regulation of apoptotic signaling. Acting as an apoptotic activator (Bax) or inhibitor (Bcl-2), the Bcl-2 family of proteins plays a significant role in apoptosis. The caspase family comprises cysteine proteases that are classified as either executioner—caspase-3, or as initiators—caspase-9 and caspase-8 [40]. […] Nevertheless, considerable downregulation of the anti-apoptotic gene, Bcl-2 (0.26 folds), was described, leading to an increased expression ratio of Bax/Bcl-2 (1→20.53). The Bax/Bcl-2 gene expression ratio can serve as an early predictor for cancer in patients and is a sensitive monitor of cancer progression. […]
The HepG2 cells were incubated in 96-well plates in triplicates and left for 24 h. […] The treated cells, along with control cells, were then incubated for another 24 h; then, caspases-3 and 9, BAX, and Bcl-2 levels were determined using ELISA assay kits; KHO1091 (Invitrogen^TM, Grand Island, NY, USA), EIA-4860 (DRU International, Inc., Mountainside, NJ, USA), EIA-4487 (DRU International INC., Mountainside, NJ, USA) and 99–0042 (Invitrogen^TM, Grand Island, NY, USA), respectively, according to their manufacturers’ procedures.

Take `O=C(CSc1nc2ccccc2o1)NN=Cc1ccc[nH]1` (mixture of isomers) [Compound 6b, (E/Z)-N′-((1H-pyrrol-2-yl)methylene)-2-(benzo[d]oxazol-2-ylthio)acetohydrazide]: the “Caspase-9 Expression” value (24 h treatment, ELISA) is 15.82 ± 0.51 pg/mL. For the same compound, where the note is “versus control HepG2 = 1”, the “Caspase-9 Fold” value was 3.5 fold.
